From ChEMBL document CHEMBL3992533, “α-Ketothioamide Derivatives: A Promising Tool to Interrogate Phosphoglycerate Dehydrogenase (PHGDH)” (J Med Chem, 2017)
The source made the active and inactive calls. The calls are words filed in the database; no cut-off is given here.

Columns and labels:
[1] = molecular target: T1, D-3-phosphoglycerate dehydrogenase (Homo sapiens) (UniProt O43175); assay: Inhibition of recombinant human C-terminal His-tagged PHGDH (1 to 533 residues) expressed in Escherichia coli assessed as reduction in NADH formation at 100 uM using 3-phosphoglycerate as substrate preincubated measured for 7 mins in presence of NAD+ by spectrophotometric method relative to control
T1 sequence (whole entry): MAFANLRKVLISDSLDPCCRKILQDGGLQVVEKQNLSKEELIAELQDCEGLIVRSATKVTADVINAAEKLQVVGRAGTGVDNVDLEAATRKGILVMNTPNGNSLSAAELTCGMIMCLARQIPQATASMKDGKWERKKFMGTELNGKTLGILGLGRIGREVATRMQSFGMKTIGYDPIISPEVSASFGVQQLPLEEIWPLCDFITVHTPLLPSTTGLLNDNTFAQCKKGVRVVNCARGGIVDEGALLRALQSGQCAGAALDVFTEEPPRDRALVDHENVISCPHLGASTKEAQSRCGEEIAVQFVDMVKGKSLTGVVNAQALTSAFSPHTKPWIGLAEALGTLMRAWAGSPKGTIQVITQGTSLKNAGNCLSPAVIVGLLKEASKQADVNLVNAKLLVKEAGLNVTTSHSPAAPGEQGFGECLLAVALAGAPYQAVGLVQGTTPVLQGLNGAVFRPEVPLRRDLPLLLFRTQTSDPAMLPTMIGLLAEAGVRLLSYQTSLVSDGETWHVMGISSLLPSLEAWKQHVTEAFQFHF

[2] = molecular target: T2, D-3-phosphoglycerate dehydrogenase (Homo sapiens, UniProt O43175); assay: Inhibition of recombinant human C-terminal His-tagged PHGDH (1 to 533 residues) expressed in Escherichia coli assessed as reduction in NADH formation using 3-phosphoglycerate as substrate in presence of NAD+ by resorufin fluorescence based PSAT1/diaphorase/PSPH coupled enzyme assay
T2 sequence (O43175 whole entry): T1 sequence (whole entry)

[3] = system: MDA-MB-231; assay: Cytotoxicity against PHGDH deficient human MDA-MB-231 cells assessed as reduction in cell viability after 5 days by presto blue assay; assay type: functional, cell-based; settings: MDA-MB-231, 120 h
[4] = molecular target: T1, D-3-phosphoglycerate dehydrogenase (Homo sapiens); assay: Ratio of IC50 for inhibition of PHGDH in human SiHa cells assessed as reduction in cell viability in serine repleted medium to IC50 for inhibition of PHGDH in human SiHa cells assessed as reduction in cell viability in serine depleted medium; assay type: cell-based
[5] = molecular target: T1, D-3-phosphoglycerate dehydrogenase (Homo sapiens); assay: Ratio of IC50 for inhibition of PHGDH in human HL60 cells assessed as reduction in cell viability in serine repleted medium to IC50 for inhibition of PHGDH in human HL60 cells assessed as reduction in cell viability in serine depleted medium; assay type: cell-based
[6] = system: HL-60; assay: Cytotoxicity against PHGDH knockout human HL60 cells assessed as reduction in cell viability after 5 days by presto blue assay; assay type: functional, cell-based; settings: HL-60, 120 h
[7] = molecular target: T2, D-3-phosphoglycerate dehydrogenase; assay: (§1) Non-competitive inhibition of recombinant human C-terminal His-tagged PHGDH (1 to 533 residues) expressed in Escherichia coli assessed as reduction in NADH formation preincubated for 30 mins followed by varying levels of 3-phosphoglycerate substrate addition in presence of constant NAD+ concentration by resorufin fluorescence based PSAT1/diaphorase/PSPH coupled enzyme assay
[8] = molecular target: T2, D-3-phosphoglycerate dehydrogenase; assay: as §1, with “constant concentration” for “varying levels”, “varying levels of” for “constant”, “NAD+” for “NAD+ concentration”
[9] = molecular target: T1, D-3-phosphoglycerate dehydrogenase (Homo sapiens); settings: 160 uM

Structure (SMILES)	inhibition [1] [%]	IC50 [2] [µM]	IC50 [3] [µM]	IC50 [6] [µM]	also measured
O=C1C=CC(=O)C=C1	100	–	–	–	–
COc1ccc(S(=O)(=O)N2CCNCC2)cc1	35	–	–	–	–
O=C(C(=S)N1CCOCC1)c1ccc(Br)cc1	–	131	> 100	> 100	Ratio IC50 [4]: 2.6; Ratio IC50 [5]: 2.2
O=C(C(=S)N1CCOCC1)c1ccc(Cl)cc1	–	8.7	> 100	> 100	Ratio IC50 [4]: 3.2; Ratio IC50 [5]: 3.3
CCCCCN1C(=O)NC(c2ccccc2)(c2ccccc2)C1=O	25	–	–	–	–
Cc1cc(C)nc(NC(=O)c2ccc([N+](=O)[O-])cc2)n1	13	–	–	–	–
O=C(C(=S)N1CCOCC1)c1cccc(Br)c1	–	> 200	–	–	–
O=C(C(=S)N1CCOCC1)c1ccc(I)cc1	–	178	> 100	> 100	Ratio IC50 [4]: 2.8; Ratio IC50 [5]: 2.8
O=C(C(=S)N1CCOCC1)c1ccc(F)cc1	–	68.9	> 100	> 100	Ratio IC50 [4]: > 2.3; Ratio IC50 [5]: 1.5
S=C(NC1CCCCC1)Sc1ccccc1	51	–	–	–	–
O=C(C(=S)N1CCOCC1)c1ccc([N+](=O)[O-])cc1	–	35.1	> 100	> 100	Ratio IC50 [4]: 3; Ratio IC50 [5]: 2.9
O=C(C(=S)N1CCOCC1)c1ccccc1	–	30.9	> 100	> 100	Ratio IC50 [4]: 9.1; Ki [7]: 40 µM; Ki [8]: 27 µM; inhibition [9]: Active
Nc1nc2c(s1)CCCC2	46	–	–	–	–
O=C(C(=S)N1CCOCC1)c1ccccc1I	–	> 200	–	–	–
O=C(C(=S)N1CCOCC1)c1cccc([N+](=O)[O-])c1	–	88.1	–	–	–
O=C(C(=S)N1CCOCC1)c1cccc(Cl)c1	–	> 200	> 100	> 100	–

Structure (SMILES)	inhibition [1] [%]	IC50 [2] [µM]	IC50 [3] [µM]	IC50 [6] [µM]	also measured
O=C(C(=S)N1CCOCC1)c1cccc(F)c1	–	> 200	–	–	–
O=C(C(=S)N1CCOCC1)c1ccccc1Cl	–	> 200	> 100	> 100	–
c1ccc(C2CNCCO2)cc1 (configuration not stated)	61	–	–	–	–
FC(F)(F)c1cc(NC(=S)N2CCN(Cc3ccccc3)CC2)cc(C(F)(F)F)c1	80	–	–	–	–
O=C(N1CCN(c2ccccc2)CC1)n1nnc2ccccc21	37	–	–	–	–
S=C(Nc1ccccc1)NC1CCCCC1	28	–	–	–	–
O=C(C(=S)N1CCOCC1)c1ccccc1[N+](=O)[O-]	–	> 200	–	–	–
O=C(C(=S)N1CCOCC1)c1cccc(I)c1	–	> 200	–	–	–
O=C(C(=S)N1CCOCC1)c1ccccc1Br	–	161	–	–	–
O=C(C(=S)N1CCOCC1)c1ccccc1F	–	> 200	–	–	–
O=C1C=CC(=O)N1c1ccccc1Cl	78	–	–	–	–
O=C1C=CC(=O)c2ccccc21	95	–	–	–	–
O=C(NC(c1ccccc1)c1ccccc1)c1ccc([N+](=O)[O-])cc1	54	–	–	–	–
S=C(c1ccc(Cl)c(Cl)c1)N1CCOCC1 [(3,4-DICHLOROPHENYL)(MORPHOLINO)METHANETHIONE]	96	–	> 100	> 100	–
O=C(Nc1ccccc1[N+](=O)[O-])c1ccc(Cl)cc1	59	75.2	> 100	> 100	–
O=C(C(=S)N1CCOCC1)c1ccc(-c2ccccc2)cc1	–	> 200	–	–	–
